Assay results published in patent publication US8853418B2, “Cyclopentylpyrazoles as N-type calcium channel blockers” (Janssen Pharmaceutica NV, priority 2012, dated 2014).
Like-named read-outs stand apart in the source and are kept apart here.

Assays:
[1] = target: N-type calcium channel (α1B (Cav2.2), β3 and α2δ subunits) (Homo sapiens, UniProt Q00975); test: Functional Assay: Antagonism of N-Type Calcium Channel (FDSS calcium mobilization, KCl depolarization); assay type: cell-based; conditions: for IC50: HEK cell line, 50 mM KCl depolarization, six-point concentration-response, read-out: FDSS IC50
Method in brief: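 HEK cells stably co-expressing α1B (Cav2.2), β3 and α2δ were loaded with calcium dye, then given compound with fluorescence recorded for 5 min before 50 mM KCl depolarisation and 3 min more reading. IC50 came from six-point curves of maximal fluorescence, normalised to KCl maximum and buffer minimum.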

N-type calcium channel = N-type calcium channel (Homo sapiens, UniProt Q00975); test: Automated Electrophysiology Assay (QPatch-HT whole-cell patch clamp; low- and high-frequency stimulation); assay type: cell-based; conditions: for inhibition at 0.1 µM / QPatch at High Frequency % Inhibition / QPatch at Low Frequency % Inhibition: 0.1 μM
[2] = tested on: Complete Freund's Adjuvant (CFA)-Induced Hyperalgesia; test: Complete Freund's Adjuvant (CFA)-Induced Hyperalgesia, radiant heat; assay type: in vivo, Sprague-Dawley rats; conditions: rat CFA radiant heat model of inflammatory pain; FIG. 1
[3] = high-frequency stimulation (15th pulse), read-out: QPatch at High Frequency % Inhibition
[4] = low frequency, read-out: QPatch at Low Frequency % Inhibition
[5] = high-frequency stimulation (15th pulse)

Chain of N-type calcium channel (Q00975 whole entry): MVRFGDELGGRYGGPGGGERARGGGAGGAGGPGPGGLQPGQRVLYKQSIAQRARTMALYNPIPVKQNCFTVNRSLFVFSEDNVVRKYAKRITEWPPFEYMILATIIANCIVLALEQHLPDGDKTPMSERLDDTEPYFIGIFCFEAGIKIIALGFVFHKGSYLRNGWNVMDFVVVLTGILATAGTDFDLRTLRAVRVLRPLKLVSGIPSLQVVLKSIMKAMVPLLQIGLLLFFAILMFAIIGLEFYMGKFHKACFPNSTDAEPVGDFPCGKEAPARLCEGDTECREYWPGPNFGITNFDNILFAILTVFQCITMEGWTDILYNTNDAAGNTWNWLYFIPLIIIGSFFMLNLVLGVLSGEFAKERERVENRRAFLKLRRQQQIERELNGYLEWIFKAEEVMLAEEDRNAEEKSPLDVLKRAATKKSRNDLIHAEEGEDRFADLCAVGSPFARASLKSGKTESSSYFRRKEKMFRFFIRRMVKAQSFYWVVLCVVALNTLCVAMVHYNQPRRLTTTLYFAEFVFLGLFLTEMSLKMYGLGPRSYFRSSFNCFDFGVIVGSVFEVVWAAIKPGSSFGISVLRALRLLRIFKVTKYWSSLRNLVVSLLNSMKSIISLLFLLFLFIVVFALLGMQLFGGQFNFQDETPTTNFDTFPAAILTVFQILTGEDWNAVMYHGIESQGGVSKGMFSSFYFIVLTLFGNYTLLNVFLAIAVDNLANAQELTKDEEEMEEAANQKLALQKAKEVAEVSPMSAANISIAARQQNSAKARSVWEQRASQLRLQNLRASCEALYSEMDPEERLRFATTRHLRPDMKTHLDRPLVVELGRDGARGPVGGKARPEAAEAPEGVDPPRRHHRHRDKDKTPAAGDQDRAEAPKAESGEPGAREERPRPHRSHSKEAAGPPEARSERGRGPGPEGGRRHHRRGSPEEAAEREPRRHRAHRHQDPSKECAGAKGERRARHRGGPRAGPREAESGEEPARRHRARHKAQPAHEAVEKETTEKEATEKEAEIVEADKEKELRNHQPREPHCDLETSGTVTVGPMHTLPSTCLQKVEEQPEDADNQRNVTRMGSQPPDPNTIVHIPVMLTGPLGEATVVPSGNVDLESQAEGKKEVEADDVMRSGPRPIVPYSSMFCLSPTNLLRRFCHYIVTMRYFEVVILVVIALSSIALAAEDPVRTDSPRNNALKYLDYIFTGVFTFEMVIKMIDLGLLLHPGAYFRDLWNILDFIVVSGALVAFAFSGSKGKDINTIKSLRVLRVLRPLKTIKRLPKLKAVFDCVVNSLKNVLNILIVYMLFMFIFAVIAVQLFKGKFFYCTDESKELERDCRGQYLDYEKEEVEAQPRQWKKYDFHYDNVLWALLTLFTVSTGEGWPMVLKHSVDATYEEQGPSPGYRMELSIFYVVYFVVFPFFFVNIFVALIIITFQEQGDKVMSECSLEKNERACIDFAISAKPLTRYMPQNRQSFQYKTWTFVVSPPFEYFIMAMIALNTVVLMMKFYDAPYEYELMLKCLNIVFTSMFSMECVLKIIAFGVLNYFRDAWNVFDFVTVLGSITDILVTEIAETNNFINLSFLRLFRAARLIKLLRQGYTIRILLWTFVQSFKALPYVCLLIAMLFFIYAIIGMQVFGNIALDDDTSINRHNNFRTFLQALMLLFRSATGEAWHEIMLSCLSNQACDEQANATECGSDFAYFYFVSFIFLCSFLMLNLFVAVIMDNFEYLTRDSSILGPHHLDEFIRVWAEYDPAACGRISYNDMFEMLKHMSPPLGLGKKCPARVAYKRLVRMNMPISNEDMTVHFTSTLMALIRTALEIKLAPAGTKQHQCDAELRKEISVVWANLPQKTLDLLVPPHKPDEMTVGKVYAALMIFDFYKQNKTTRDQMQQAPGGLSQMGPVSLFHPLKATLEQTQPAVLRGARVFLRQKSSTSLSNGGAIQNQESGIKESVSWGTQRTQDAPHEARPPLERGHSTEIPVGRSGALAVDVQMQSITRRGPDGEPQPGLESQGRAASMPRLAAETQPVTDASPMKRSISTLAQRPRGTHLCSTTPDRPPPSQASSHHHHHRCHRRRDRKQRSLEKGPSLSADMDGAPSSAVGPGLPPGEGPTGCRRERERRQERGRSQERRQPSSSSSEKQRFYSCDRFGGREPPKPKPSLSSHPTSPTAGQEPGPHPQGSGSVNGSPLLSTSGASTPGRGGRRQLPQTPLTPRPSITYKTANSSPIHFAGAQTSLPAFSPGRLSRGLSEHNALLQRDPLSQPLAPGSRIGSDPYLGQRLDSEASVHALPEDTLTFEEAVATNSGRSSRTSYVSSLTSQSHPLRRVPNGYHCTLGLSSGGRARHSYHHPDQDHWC
Chain of N-type calcium channel (P54284 whole entry partner): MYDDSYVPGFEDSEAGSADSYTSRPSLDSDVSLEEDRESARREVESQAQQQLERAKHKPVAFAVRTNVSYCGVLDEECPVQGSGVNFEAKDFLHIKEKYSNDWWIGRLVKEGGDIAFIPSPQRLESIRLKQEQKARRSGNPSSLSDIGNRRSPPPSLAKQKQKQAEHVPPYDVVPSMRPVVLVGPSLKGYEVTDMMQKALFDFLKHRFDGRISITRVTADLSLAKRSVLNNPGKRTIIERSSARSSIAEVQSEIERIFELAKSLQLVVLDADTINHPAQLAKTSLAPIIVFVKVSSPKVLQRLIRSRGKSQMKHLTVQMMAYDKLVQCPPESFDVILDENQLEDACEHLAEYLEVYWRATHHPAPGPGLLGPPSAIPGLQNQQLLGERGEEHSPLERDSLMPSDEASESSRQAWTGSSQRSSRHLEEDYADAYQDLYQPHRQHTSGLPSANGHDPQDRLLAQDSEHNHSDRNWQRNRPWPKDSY
Chain of N-type calcium channel (P54289 25-946 partner limits assumed): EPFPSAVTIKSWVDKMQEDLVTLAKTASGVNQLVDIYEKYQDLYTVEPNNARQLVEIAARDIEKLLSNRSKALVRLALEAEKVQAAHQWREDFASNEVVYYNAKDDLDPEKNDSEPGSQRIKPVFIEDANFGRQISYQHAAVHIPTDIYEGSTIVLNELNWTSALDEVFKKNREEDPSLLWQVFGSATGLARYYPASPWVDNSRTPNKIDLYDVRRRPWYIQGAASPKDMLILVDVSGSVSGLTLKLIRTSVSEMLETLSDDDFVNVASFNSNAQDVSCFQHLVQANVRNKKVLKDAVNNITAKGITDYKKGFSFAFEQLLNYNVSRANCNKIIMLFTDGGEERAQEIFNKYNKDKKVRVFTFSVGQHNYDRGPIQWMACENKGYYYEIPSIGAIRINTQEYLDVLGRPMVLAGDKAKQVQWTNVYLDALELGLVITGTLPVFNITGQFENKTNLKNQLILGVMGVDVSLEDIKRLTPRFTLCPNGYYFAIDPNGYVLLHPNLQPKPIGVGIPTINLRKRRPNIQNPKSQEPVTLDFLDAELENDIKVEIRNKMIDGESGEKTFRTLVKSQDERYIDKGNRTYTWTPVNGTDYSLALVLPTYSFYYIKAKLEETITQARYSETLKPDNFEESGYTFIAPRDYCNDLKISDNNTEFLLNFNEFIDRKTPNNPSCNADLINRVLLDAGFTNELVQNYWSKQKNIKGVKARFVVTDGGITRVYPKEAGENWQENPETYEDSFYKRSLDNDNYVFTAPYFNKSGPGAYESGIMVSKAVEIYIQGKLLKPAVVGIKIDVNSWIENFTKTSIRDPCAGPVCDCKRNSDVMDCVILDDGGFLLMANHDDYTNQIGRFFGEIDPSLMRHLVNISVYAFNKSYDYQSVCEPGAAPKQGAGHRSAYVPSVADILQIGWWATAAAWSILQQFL
Chain of N-type calcium channel (P54289 947-1103 partner limits assumed): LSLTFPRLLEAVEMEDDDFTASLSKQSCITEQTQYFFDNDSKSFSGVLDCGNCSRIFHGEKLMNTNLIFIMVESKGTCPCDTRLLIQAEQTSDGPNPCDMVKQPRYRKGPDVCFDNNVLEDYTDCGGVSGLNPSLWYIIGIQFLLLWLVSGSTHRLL
Chain of N-type calcium channel (α1B (Cav2.2), β3 and α2δ subunits) (Q00975 whole entry): as the sequence (Q00975 whole entry) above
Chain of N-type calcium channel (α1B (Cav2.2), β3 and α2δ subunits) (P54284 whole entry partner): as the sequence (P54284 whole entry partner) above
Chain of N-type calcium channel (α1B (Cav2.2), β3 and α2δ subunits) (P54289 25-946 partner limits assumed): as the sequence (P54289 25-946 partner limits assumed) above
Chain of N-type calcium channel (α1B (Cav2.2), β3 and α2δ subunits) (P54289 947-1103 partner limits assumed): as the sequence (P54289 947-1103 partner limits assumed) above

Compound | inhibition at 0.33 µM ([1]; 0.33 μM) | IC50 [1] | inhibition at 0.1 µM (N-type calcium channel; [3]) | inhibition at 0.1 µM (N-type calcium channel; [4]) | inhibition at 1 µM (N-type calcium channel; [3]) | inhibition at 1 µM (N-type calcium channel; [4]) | QPatch at High Frequency % Inhibition (N-type calcium channel; [5]) | QPatch at Low Frequency % Inhibition (N-type calcium channel; low frequency) | % Inhibition (%) at 0.33 μM ([1]; 0.33 μM) | antihyperalgesic effect [2] | inhibition at 0.33 µM [1]
COc1ccccc1-n1nc2c(c1-c1ccc(Cl)cc1)CC1(C2)OCC(C)(C)CO1 [Compound 71, 3-(4-chlorophenyl)-2-(2-methoxyphenyl)-5′,5′-dimethyl-2,6-dihydro-4H-spiro[cyclopenta[c]pyrazole-5,2′-[1,3]dioxane]] | 89% | 13 nM | 37% | 21% |  |  |  |  |  | antihyperalgesic effect | 
COc1ccccc1-n1nc2c(c1-c1ccc(C#N)cc1)CC(CC(C)C)C2 (stereo not drawn) [Compound 105, 4-[2-(2-methoxyphenyl)-5-(2-methylpropyl)-2,4,5,6-tetrahydrocyclopenta[c]pyrazol-3-yl]benzonitrile] | 81% | 46 nM | 20% | -1% | 40% | 10% |  |  |  |  | 
COc1ccccc1-n1nc2c(c1-c1ccc(N(C)C)cc1)CC1(C2)OC(C)(C)C(C)(C)O1 [Compound 107, 4-[2-(2-methoxyphenyl)-4′,4′,5′,5′-tetramethyl-2,6-dihydro-4H-spiro[cyclopenta[c]pyrazole-5,2′-[1,3]dioxolan]-3-yl]-N,N-dimethylaniline] | 92% | 3 nM | 33% | 34% |  |  |  |  |  |  | 
CCOc1ccc(-c2c3c(nn2-c2ccccc2OC)CC2(C3)OC(C)(C)C(C)(C)O2)cn1 [Compound 108, 3-(6-ethoxypyridin-3-yl)-2-(2-methoxyphenyl)-4′,4′,5′,5′-tetramethyl-2,6-dihydro-4H-spiro[cyclopenta[c]pyrazole-5,2′-[1,3]dioxolane]] | 86% | 10 nM | 13% | 3% |  |  |  |  |  |  | 
COc1ccccc1-n1nc2c(c1-c1ccc(C)nc1)CC1(C2)OC(C)(C)C(C)(C)O1 [Compound 109, 2-(2-methoxyphenyl)-4′,4′,5′,5′-tetramethyl-3-(6-methylpyridin-3-yl)-2,6-dihydro-4H-spiro[cyclopenta[c]pyrazole-5,2′-[1,3]dioxolane]] | 84% | 19 nM | 9% | 8% |  |  |  |  |  |  | 
COc1ccccc1-n1nc2c(c1-c1ccc(N(C)C)nc1)CC1(C2)OC(C)(C)C(C)(C)O1 [Compound 110, 5-[2-(2-methoxyphenyl)-4′,4′,5′,5′-tetramethyl-2,6-dihydro-4H-spiro[cyclopenta[c]pyrazole-5,2′-[1,3]dioxolan]-3-yl]-N,N-dimethylpyridin-2-amine] | 90% | 2.8 nM | 1% | -9% |  |  |  |  |  |  | 
COc1ccccc1-n1nc2c(c1-c1ccc(C#N)cc1)CC1(C2)OC(C)(C)C(C)(C)O1 [Compound 111, 4-[2-(2-methoxyphenyl)-4′,4′,5′,5′-tetramethyl-2,6-dihydro-4H-spiro[cyclopenta[c]pyrazole-5,2′-[1,3]dioxolan]-3-yl]benzonitrile] | 90% | 3.7 nM | 21% | -5% |  |  |  |  |  |  | 
COc1ccccc1-n1nc2c(c1-c1ccc(Cl)cc1)CC1(C2)O[C@H]2CCCC[C@H]2O1 (stereo partly drawn) [Compound 112, (3aR,7aS)-3′-(4-chlorophenyl)-2′-(2-methoxyphenyl)-2′,3a,4,5,6,6′,7,7a-octahydro-4′H-spiro[1,3-benzodioxole-2,5′-cyclopenta[c]pyrazole]] |  |  | 26% | 7% |  |  |  |  |  |  | 90%

Now from value to compound, other results behind:

inhibition at 0.33 µM ([1]; 0.33 μM) | IC50 [1] | inhibition at 0.1 µM (N-type calcium channel; [3]) | inhibition at 0.1 µM (N-type calcium channel; [4]) | inhibition at 1 µM (N-type calcium channel; [3]) | inhibition at 1 µM (N-type calcium channel; [4]) | QPatch at High Frequency % Inhibition (N-type calcium channel; [5]) | QPatch at Low Frequency % Inhibition (N-type calcium channel; low frequency) | % Inhibition (%) at 0.33 μM ([1]; 0.33 μM) | Compound | antihyperalgesic effect [2] | inhibition at 0.33 µM [1]
82% | 42 nM | 3% | -4% |  |  |  |  |  | COc1ccccc1-n1nc2c(c1-c1ccc(Cl)cc1)CC1(C2)O[C@H]2CCC[C@@H]2O1 [Compound 113, (3aS,6aS)-3′-(4-chlorophenyl)-2′-(2-methoxyphenyl)-2′,4,5,6,6′,6a-hexahydro-3aH,4′H-spiro[cyclopenta[d][1,3]dioxole-2,5′-cyclopenta[c]pyrazole]] |  | 
90% | 5 nM |  |  |  |  | 65% | 44% |  | COc1ccccc1-n1nc2c(c1-c1ccc(Cl)cc1)CC1(C2)O[C@H]2CCC[C@H]2O1 (stereo partly drawn) [Compound 114, (3aR,6aS)-3′-(4-chlorophenyl)-2′-(2-methoxyphenyl)-2′,4,5,6,6′,6a-hexahydro-3aH,4′H-spiro[cyclopenta[d][1,3]dioxole-2,5′-cyclopenta[c]pyrazole]] |  | 
 | 11 nM |  |  |  |  | 37% | 8% | 85% | COc1ccccc1-n1nc2c(c1-c1ccc(Cl)cc1)CC1(C2)O[C@H]2CCC[C@H]2O1 (stereo partly drawn) [Compound 115, (3aR,6aS)-3′-(4-chlorophenyl)-2′-(2-methoxyphenyl)-2′,4,5,6,6′,6a-hexahydro-3aH,4′H-spiro[cyclopenta[d][1,3]dioxole-2,5′-cyclopenta[c]pyrazole]] |  | 
91% | 19 nM | 26% | 2% |  |  |  |  |  | COc1ccccc1-n1nc2c(c1-c1ccc(Cl)cc1)CC(N1CCC(F)(F)C1)C2 (stereo not drawn) [Compound 123, 3-(4-chlorophenyl)-5-(3,3-difluoropyrrolidin-1-yl)-2-(2-methoxyphenyl)-2,4,5,6-tetrahydrocyclopenta[c]pyrazole] |  | 
88% | 43 nM |  |  | 73% | 68% |  |  |  | COc1ccccc1-n1nc2c(c1-c1ccc(C#N)cc1)C[C@H](n1cc(C3CCCC3)nn1)C2 [Compound 124, 4-[(5S)-5-(4-cyclopentyl-1H-1,2,3-triazol-1-yl)-2-(2-methoxyphenyl)-2,4,5,6-tetrahydrocyclopenta[c]pyrazol-3-yl]benzonitrile] |  | 
97% | 17 nM | 26% | 13% |  |  |  |  |  | COc1ccccc1-n1nc2c(c1-c1ccc(C#N)cc1)C[C@H](n1cc(CC(C)C)nn1)C2 [Compound 127, 4-{(5S)-2-(2-methoxyphenyl)-5-[4-(2-methylpropyl)-1H-1,2,3-triazol-1-yl]-2,4,5,6-tetrahydrocyclopenta[c]pyrazol-3-yl}benzonitrile] |  | 
92% | 50 nM |  |  | 57% | 39% |  |  |  | COc1ccccc1-n1nc2c(c1-c1ccc(C#N)cc1)C[C@H](n1cc(C(C)(C)C)nn1)C2 [Compound 130, 4-[(5S)-5-(4-tert-butyl-1H-1,2,3-triazol-1-yl)-2-(2-methoxyphenyl)-2,4,5,6-tetrahydrocyclopenta[c]pyrazol-3-yl]benzonitrile] |  | 
87% | 37 nM |  |  | 66% | 72% |  |  |  | CCc1ncn([C@@H]2Cc3nn(-c4ccccc4OC)c(-c4ccc(C#N)cc4)c3C2)c1CC [Compound 139, 4-[(5S)-5-(4,5-diethyl-1H-imidazol-1-yl)-2-(2-methoxyphenyl)-2,4,5,6-tetrahydrocyclopenta[c]pyrazol-3-yl]benzonitrile] |  | 
